US8785483B2, “Methods for treating COPD” (The Board of Regents of the University of Texas System, priority 2010, dated 2014)

Assays:
[1] = tested on: STAT-6; experiment: Western blot of STAT-6 phosphorylation in airway epithelial monolayer; format: cell-based, human; settings: ALI monolayer, AR inhibitor 24 h prior to IL-13
Procedure: FIG. 7. AR inhibition prevents IL-13-induced phosphorylation of JAK-1, ERK1/2 and STAT-6 in airway epithelial monolayer. The ciliated monolayer of airway cells at ALI was treated with AR inhibitor for 24 h and stimulated with IL-13 for different time periods as indicated. At the end of incubation, cells were lysed and cell lysate was subjected to western blotting using antibodies against phosphorylated and nonphosphorylated JAK-1, ERK1/2 and STAT-6 to analyze the activation of these signaling proteins. A representative blot is shown (n=4). #p<0.001 vs Control; *p<0.01 and **p<0.001 vs IL-13. For air-liquid interface (ALI) culture, SAEC were seeded at 8.5×10^4 cells/12-mm-diameter PET transparent insert with […] pores (12-well millicell culture insert; Millipore) and pre-coated with rat tail collagen type-1 (Sigma-Aldrich). The cells were grown submerged in the differentiation medium as described earlier by Zhen et al. (Am J Respir Cell Mol Biol 36: 244-253, 2007). […] Protein levels were determined using Bradford reagent (Biorad, Hercules, Calif.). […] The blots were then washed, exposed to HRP-conjugated secondary antibodies (1:5,000 dilution) for 1 h, and the antigen-antibody complex was detected by enhanced chemiluminescence (Amersham Pharmacia Biotech, Piscataway, N.J., USA). […]

[2] = tested on: airway epithelial cell monolayer (SAEC at ALI); experiment: Air-liquid interface culture: IL-13-induced loss of cilia and goblet cell metaplasia (H&E, PAS, β-tubulin and Muc5AC immunostaining); format: cell-based, human
Procedure: FIGS. 4A-4B. AR inhibition prevents IL-13-induced loss of cilia and β-tubulin in airway epithelial cell monolayer. Approximately 8.5×10^4 SAEC were seeded per 12 mm diameter PET transparent insert and cultured for 7 days in differentiation media supplied from both lower and upper sides followed by culture on ALI for 11 days for differentiation into ciliated cells. The monolayer was treated with AR inhibitor for overnight and stimulated with IL-13 for 48 h. The monolayers on the membrane inserts were fixed for 24 h in z-fix (10% buffered formalin with zinc) at 4° C., paraffin embedded and […] sections were cut. (A) The H&E stained sections were examined under the light microscope; magnification 400×. […] (B) Immunohistochemistry using β-tubulin antibodies was performed on the sections. Dark brown staining in the monolayer corresponds to cilia axoneme β-tubulin. Arrows show loss of β-tubulin as the ciliated cells transform into goblet cells. A representative photomicrograph has been shown (n=4); magnification 400×. FIGS. 5A-5B. AR inhibition prevents IL-13-induced goblet cell metaplasia and expression of Muc5AC in airway epithelial monolayer. (A) The well-differentiated airway epithelial cells at air-liquid interface (ALI) were incubated with IL-13 for 48 h without or with AR inhibitor, fidarestat. The monolayer was fixed as described and immunohistochemistry using Muc5AC antibodies was performed on the sections. A representative photomicrograph is shown (n=4); magnification 400×. […] (C) The airway epithelial monolayer was incubated with IL-13 submerged in basal medium for 48 h in the absence and presence of AR inhibitor, fidarestat. The culture medium was collected from the top chamber and utilized for determination of Muc5AC by an ELISA, (n=4); *p<0.005 vs Control; **p<0.01 vs IL-13. For air-liquid interface (ALI) culture, SAEC were seeded at 8.5×10^4 cells/12-mm-diameter PET transparent insert with […] pores (12-well millicell culture insert; Millipore) and pre-coated with rat tail collagen type-1 (Sigma-Aldrich). The cells were grown submerged in the differentiation medium as described earlier by Zhen et al. (Am J Respir Cell Mol Biol 36: 244-253, 2007). The differentiation medium contained a 1:1 mixture of DMEM and small airway epithelial growth medium supplemented as described above, except that gentamycin sulfate, amphotericin B, and triiodothyronine were replaced with 1% penicillin/streptomycin, and 50 nM all-trans retinoic acid. The SAEC were maintained submerged for the first 7 days, after which the apical medium was removed and an air-liquid interface culture was established. […] The stained sections were analyzed and representative fields were photographed using a Photometrix CoolSNAP Fx camera mounted on a NIKON Eclipse TE 200 UV microscope. […]

## NC(=O)[C@@H]1C[C@]2(NC(=O)NC2=O)c2cc(F)ccc2O1 [fidarestat, (2S,4S)-2-aminoformyl-6-fluoro-spiro[chroman-4,4′-imidazolidine]-2′,5′-dione]
[1]
  IL-13-induced phosphorylation of STAT-6: decreased significantly
[2]; IL-13 48 h, Muc5AC immunostaining
  decrease in number of Muc5AC positive cells: ~70%
[2]; fidarestat 10 μM overnight, IL-13 25 ng/ml 48 h
  ciliated morphology (β-tubulin immunostaining) after IL-13: preserved the ciliated morphology
[2]; inhibitor added prior to IL-13 challenge, 48 h, data not shown
  differentiation of airway cells into goblet cells (PAS staining): prevented the airway cells from differentiating into goblet cells
[2]; inhibitor alone, no IL-13
  toxic effects of AR inhibitor alone on monolayer of ciliated cells: no toxic effects
